Source: patent EP0287014A2, “Cholesteryl-phosphoryl choline for the reduction of the cholesterol level” (F. HOFFMANN-LA ROCHE AG, priority 1987, dated 1988)
Read-outs that look alike come from different tables or passages of the source.

Experiments:
Totenkopfäffchen [1] = experiment: Plasma cholesterol level during 14 days of feeding with coconut-oil diet; assay type: in vivo; details: for Senkung des Cholesterinspiegels in Prozenten der Kontrolltieren: versus placebo
Method: Totenkopfäffchen wurde pro Tier und Tag 239 mg Lactose als Placebo oder 239 mg CPC zusammen mit Kokonussöl enthaltendem Futter während 14 Tagen verabreicht. Jede 3 oder 4 Tage wurde den Tieren venöses Blut entnommen und der Cholesterinspiegel im Blutplasma ermittelt. In der nachstehenden Tabelle wird der Cholesterinspiegel in Prozenten der Vorperiode sowie die Senkung des Cholesterinspiegels in Prozenten der Kontrolltieren angegeben.

Totenkopfäffchen [2] = experiment: Inhibition of cholesterol absorption after oral [14C]-cholesterol test meal, faecal radioactivity over 2.5 days; assay type: in vivo; details: in percent of untreated control animals
Method: Einer Gruppe von 12 Totenkopfäffchen wurde ein Gemisch enthaltend Triolein, Stärke, Milchpulver, 1 mg [¹⁴C]-Cholesterin und 0.05 mg [³H]-Polyäthylenglycol und unmittelbar darauf eine Dispersion von CPC in 5% Gummi arabicum oral verabreicht. Hierauf wurde der Kot während 2,5 Tagen gesammelt. Die ausgeschiedene [¹⁴C]-Radioaktivität des Cholesterins wurde unter Berücksichtigung der [³H]-Radioaktivität des internen Standards Polyäthylenglycol ermittelt. Es wurde die Cholesterinabsorption (Differenz zwischen der verabreichten und der ausgeschiedenen [¹⁴C]-Radioaktivität des Cholesterins) berechnet und in der nachfolgenden Tabelle in Prozenten von unbehandelten Kontrolltieren angegeben.

Acute toxicity (LD50) = details: mouse, in vivo, Maus, read-out: LD₅₀
Method: Was die Toxizität anbelangt, beträgt die LD₅₀ von CPC 125 mg/kg i.v. und 4000 mg/kg p.o. an der Maus.

CC(C)CCC[C@@H](C)[C@H]1CC[C@H]2[C@@H]3CC=C4C[C@@H](OP(=O)([O-])OCC[N+](C)(C)C)CC[C@]4(C)[C@H]3CC[C@]12C [CPC, Cholesteryl-phosphorylcholin]
Cholesterinspiegel im Blutplasma in Prozenten der Vorperiode (Totenkopfäffchen [1]; Tag 1, vor der Behandlung, 239 mg CPC per animal and day): 100±8%
Senkung des Cholesterinspiegels in Prozenten der Kontrolltieren (Totenkopfäffchen [1]; Tag 1, vor der Behandlung): 0%
Cholesterinspiegel im Blutplasma in Prozenten der Vorperiode (Totenkopfäffchen [1]; Tag 4, während der Behandlung, 239 mg CPC per animal and day): 88±6%
Senkung des Cholesterinspiegels in Prozenten der Kontrolltieren (Totenkopfäffchen [1]; Tag 4, während der Behandlung): 9%
Cholesterinspiegel im Blutplasma in Prozenten der Vorperiode (Totenkopfäffchen [1]; Tag 7, während der Behandlung, 239 mg CPC per animal and day): 84±4%
Senkung des Cholesterinspiegels in Prozenten der Kontrolltieren (Totenkopfäffchen [1]; Tag 7, während der Behandlung): 20%
Cholesterinspiegel im Blutplasma in Prozenten der Vorperiode (Totenkopfäffchen [1]; Tag 11, während der Behandlung, 239 mg CPC per animal and day): 93±13%
Senkung des Cholesterinspiegels in Prozenten der Kontrolltieren (Totenkopfäffchen [1]; Tag 11, während der Behandlung): 13%
Cholesterinspiegel im Blutplasma in Prozenten der Vorperiode (Totenkopfäffchen [1]; Tag 14, während der Behandlung, 239 mg CPC per animal and day): 86±11%
Senkung des Cholesterinspiegels in Prozenten der Kontrolltieren (Totenkopfäffchen [1]; Tag 14, während der Behandlung): 18%
Cholesterinspiegel im Blutplasma in Prozenten der Vorperiode (Totenkopfäffchen [1]; Tag 18, nach der Behandlung, 239 mg CPC per animal and day for 14 days): 94±13%
Senkung des Cholesterinspiegels in Prozenten der Kontrolltieren (Totenkopfäffchen [1]; Tag 18, nach der Behandlung): 9%
Cholesterinspiegel im Blutplasma in Prozenten der Vorperiode (Totenkopfäffchen [1]; Tag 21, nach der Behandlung, 239 mg CPC per animal and day for 14 days): 97±11%
Senkung des Cholesterinspiegels in Prozenten der Kontrolltieren (Totenkopfäffchen [1]; Tag 21, nach der Behandlung): 10%
reversible Senkung des Plasmacholesterols (Totenkopfäffchen [1]; summary, versus placebo values and values of the pre-period): 10 bis 20%
Cholesterinabsorption (%) (Totenkopfäffchen [2]; Dosis 30 µMol/kg oral): 90 ± 17%
Cholesterinabsorption (%) (Totenkopfäffchen [2]; Dosis 100 µMol/kg oral): 60 ± 10%
Cholesterinabsorption (%) (Totenkopfäffchen [2]; Dosis 300 µMol/kg oral): 12 ± 6%
LD50 (Acute toxicity (LD50); iv): 125 mg/kg
LD50 (Acute toxicity (LD50); po): 4000 mg/kg
